We go through 6 compounds from paper PMC4091765 (Methods in molecular biology (Clifton, N.J.), 2013).

For one test, the target named is PDE9A (Homo sapiens, UniProt O76083). Briefly: PDE assay using isothermal titration calorimetry. Conditions: ITC; for Ki: compound as inhibitor of PDE9; for Km: compound as substrate.
The target in another test is PDE8A (Homo sapiens, UniProt O60658). Briefly: PDE assay using isothermal titration calorimetry. Conditions: ITC, compound as substrate; n.h. = not hydrolyzed.
PDE8A, sequence (O60658 whole entry, species assumed): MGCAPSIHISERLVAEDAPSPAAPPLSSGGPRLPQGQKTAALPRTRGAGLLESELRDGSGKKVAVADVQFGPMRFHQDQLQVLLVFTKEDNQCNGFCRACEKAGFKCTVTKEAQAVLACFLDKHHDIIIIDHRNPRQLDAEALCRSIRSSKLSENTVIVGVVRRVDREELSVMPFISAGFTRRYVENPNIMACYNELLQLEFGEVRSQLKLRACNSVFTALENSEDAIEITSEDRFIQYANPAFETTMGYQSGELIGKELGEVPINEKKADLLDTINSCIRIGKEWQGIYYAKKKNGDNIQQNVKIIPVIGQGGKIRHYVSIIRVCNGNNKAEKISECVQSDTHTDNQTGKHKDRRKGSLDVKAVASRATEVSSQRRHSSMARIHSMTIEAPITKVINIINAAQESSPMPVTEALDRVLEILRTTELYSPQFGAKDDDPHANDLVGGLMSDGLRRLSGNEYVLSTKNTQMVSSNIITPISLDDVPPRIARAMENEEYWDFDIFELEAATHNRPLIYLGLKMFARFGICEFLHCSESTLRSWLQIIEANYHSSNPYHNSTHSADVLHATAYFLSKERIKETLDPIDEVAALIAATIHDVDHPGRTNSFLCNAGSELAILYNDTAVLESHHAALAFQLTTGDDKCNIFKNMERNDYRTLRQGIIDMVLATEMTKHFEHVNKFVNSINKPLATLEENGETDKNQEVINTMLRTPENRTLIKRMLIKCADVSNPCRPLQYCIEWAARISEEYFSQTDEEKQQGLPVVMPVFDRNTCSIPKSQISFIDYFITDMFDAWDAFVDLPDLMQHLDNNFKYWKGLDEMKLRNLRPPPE
A further test concerns PDE5. The note with it: ITC, cited from earlier work.
Another test relates to PDEs. Briefly: ITC PDE assays, summary over the PDE panel. The note with it: result in words.
The subject of a further test is PDE10. Conditions: ITC, compound as substrate; cited from earlier work. In general terms: Isothermal titration calorimetry measures the heat released or taken up as one component is titrated into another.
The next test deals with PDE2A. The note with it: ITC, compound as substrate; cited from earlier work.
The next test concerns PDE6. The note with it: ITC, compound as substrate, cited from earlier work.
The next test deals with PDE1A. The note with it: ITC, compound as substrate; cited from earlier work.
The test system of a further test is PDE1C. The note with it: ITC, compound as substrate; cited from earlier work.
Another test relates to PDE4D. The note with it: ITC, compound as substrate; n.h. = not hydrolyzed; cited from earlier work.
In the next test the test system is PDE1B. The note with it: ITC, compound as substrate; cited from earlier work.

What is called Ki is the dissociation constant of the complex between target and ligand, obtained from inhibition or displacement. Low values mean a stronger hold on the target, high ones a looser hold on the target. As a reminder, the Km is the concentration of substrate that gives half-maximal velocity. For orientation: Vmax means the top rate of the reaction or transport when substrate is in excess.

PDE9A, sequence (O76083 whole entry, species assumed): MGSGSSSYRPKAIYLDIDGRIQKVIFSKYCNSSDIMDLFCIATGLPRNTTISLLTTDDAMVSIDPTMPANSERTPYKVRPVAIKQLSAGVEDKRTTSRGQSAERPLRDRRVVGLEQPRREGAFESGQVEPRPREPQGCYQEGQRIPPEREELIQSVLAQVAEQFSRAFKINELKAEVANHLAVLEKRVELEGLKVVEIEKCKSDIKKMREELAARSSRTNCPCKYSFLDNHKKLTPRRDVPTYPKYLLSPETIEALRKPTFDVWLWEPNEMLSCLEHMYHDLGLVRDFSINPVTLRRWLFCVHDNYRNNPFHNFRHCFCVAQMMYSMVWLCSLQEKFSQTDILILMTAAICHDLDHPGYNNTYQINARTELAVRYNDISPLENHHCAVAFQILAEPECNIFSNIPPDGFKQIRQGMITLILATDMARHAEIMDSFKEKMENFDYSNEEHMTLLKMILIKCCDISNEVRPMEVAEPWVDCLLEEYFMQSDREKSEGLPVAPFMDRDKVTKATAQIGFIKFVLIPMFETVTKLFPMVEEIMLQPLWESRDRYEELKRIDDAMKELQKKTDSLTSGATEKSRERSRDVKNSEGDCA

Compound `Nc1nc2c(nc(Sc3ccc(Cl)cc3)n2C2O[C@@H]3COP(=O)(O)O[C@H]3[C@H]2O)c(=O)[nH]1` (stereo in doubt) [8-pCPT-cGMP] gave an inhibitory constant (Ki) on PDE9A of 1.29 µM.

Take `Nc1nc2c(nc(Br)n2[C@@H]2O[C@@H]3COP(=O)(O)O[C@H]3[C@H]2O)c(=O)[nH]1` [8-Br-cGMP]: at PDE8A, the Michaelis-Menten constant (Km) was 0.55 µM. At PDE9A, this compound displayed a Ki of 0.77 µM.

Take `CO[C@@H]1[C@@H]2OP(=O)(O)OC[C@H]2O[C@H]1n1c(Sc2ccc(Cl)cc2)nc2c(N)ncnc21` [8-pCPT-2-0-Me cAMP]: the “substrate property for PDE5” value in the test on PDE5 (result in words) is “rather good substrate for PDE5”.

Regarding `Nc1ncnc2c1nc(Br)n2[C@@H]1O[C@@H]2COP(=O)(O)O[C@H]2[C@H]1O` [8Br-cAMP], the Michaelis-Menten constant (Km) at PDE9A worked out at 5.99 µM.

As for `COC1C2OP(O)(=S)OCC2OC1n1c(Sc2ccc(Cl)cc2)nc2c(N)ncnc21` (stereo not shown) [Sp-8-pCPT-2-0-Me-cAMPS], the “substrate property for PDEs” value with PDEs (any PDE of the panel) is “not a substrate for any PDE”. The “inhibition of PDEs” value in the test on PDEs (several PDEs of the panel) is on record as “quite a good inhibitor of several of them”.

For the compound `Nc1nc2c(ncn2[C@@H]2O[C@@H]3COP(=O)(O)O[C@H]3[C@H]2O)c(=O)[nH]1` [cGMP], the Km with PDE5 (compound as substrate) is 2 µM; with PDE10, 1.1 µM; in the test with PDE2A, 31 µM; on PDE8A it was “n.h”; in the test on PDE6, 10 µM; in the test with PDE1A it was 8.2 µM. The Km with PDE1C was 4.6 µM; with PDE4D, “n.h”; on PDE9A, 0.2 µM; in the test on PDE1B, 5.4 µM. For the same compound, the maximal velocity (Vmax) with PDE10 was 1.6 ± 0.11 µM/min/mg; in the test with PDE2A, 176 ± 31 µM/min/mg; at PDE8A it was “n.h”; with PDE6 (Vmax normalized, cGMP as substrate = 1), 1.0 +/− 1.1; in the test with PDE1A it was 20 ± 1.0 µM/min/mg; in the test with PDE1C, 1.4 ± 1.0 µM/min/mg. In addition, the figures for the Vmax entry with PDE4D and in the test with PDE1B were “n.h” and 2.6 ± 0.7 µM/min/mg, respectively.
